# Data reported in ChEMBL document CHEMBL1240297 (Cancer Res, 2005).
# The source made the active and inactive calls. The rule behind the calls is not given here. Where a SMILES comes first, the peptide text is derived from it. The star is where a group is joined. Cbz = O=C(OCc1ccccc1)*
# Assays:
# [1] = test system: LP-1; experiment: Induction of apoptosis in human LP-1 cells assessed as reduction of Mcl-1 protein level at 300 nM after 16 hrs by immunoblotting; type: functional, cell-based
# [2] = test system: LP-1; experiment: Induction of apoptosis in human LP-1 cells assessed as increase in level of cleaved PARP at 300 nM after 16 hrs by immunoblotting; type: functional, cell-based
# [3] = Selectivity ratio of IC50 for CDK9/cyclin T to IC50 for CDK2/cyclin E
# [4] = test system: NCI-H929; experiment: Induction of apoptosis in human NCI-H929 cells assessed as changes in survivin protein level at 60 uM after 3 hrs by immunoblotting; type: functional, cell-based
# [5] = test system: NCI-H929; experiment: Induction of apoptosis in human NCI-H929 cells assessed as […] slow migrating hyperphosphorylated RNA polymerase 2O form at 60 uM after 1.5 hrs by immunoblotting; type: functional, cell-based
# [6] = test system: NCI-H929; experiment: Induction of apoptosis in human NCI-H929 cells assessed as reduction of RNA polymerase 2 phosphoserine 2 level at 60 uM after 1.5 hrs by immunoblotting; type: functional, cell-based
# [7] = test system: NCI-H929; experiment: Induction of apoptosis in human NCI-H929 cells assessed as changes in Bcl-2 protein level at 60 uM after 3 hrs by immunoblotting; type: functional, cell-based
# [8] = test system: U-266; experiment: Cytotoxicity against human U266 cells after 72 hrs by alamar blue assay; type: functional, cell-based; details: U-266, 72 h
# [9] = test system: NCI-H929; experiment: Induction of apoptosis in human NCI-H929 cells assessed as reduction of total RNA polymerase 2 level at 60 uM after 1.5 hrs by immunoblotting; type: functional, cell-based
# [10] = test system: NCI-H929; experiment: Induction of apoptosis in human NCI-H929 cells assessed as reduction of RNA polymerase 2 phosphoserine 5 level at 60 uM after 1.5 hrs by immunoblotting; type: functional, cell-based
# [11] = test system: NCI-H929; experiment: Induction of apoptosis in human NCI-H929 cells assessed as reduction of Hdm2 level at 60 uM after 1.5 hrs by immunoblotting; type: functional, cell-based
# [12] = test system: NCI-H929; experiment: Induction of apoptosis in human NCI-H929 cells assessed as increase in level of cleaved PARP at 60 uM after 5 hrs by immunoblotting; type: functional, cell-based
# [13] = test system: NCI-H929; experiment: Induction of apoptosis in human NCI-H929 cells assessed as fast migrating hypophosphorylated RNA polymerase 2A form at 60 uM after 1.5 hrs by immunoblotting; type: functional, cell-based
# [14] = test system: NCI-H929; experiment: Induction of apoptosis in human NCI-H929 cells assessed as dephosphorylation of pRb at S249/T252 at 60 uM after 1.5 hrs by immunoblotting; type: functional, cell-based
# [15] = test system: NCI-H929; experiment: Induction of apoptosis in human NCI-H929 cells assessed as increase of p53 accumulation at 60 uM after 1.5 hrs by immunoblotting; type: functional, cell-based
# [16] = Cytotoxicity against human NCI-H929 cells after 72 hrs by alamar blue assay; type: functional, cell-based; details: NCI-H929, 72 h
# [17] = Cytotoxicity against human RPM18226 cells after 72 hrs by alamar blue assay; type: functional, cell-based; details: RPMI-8226, 72 h
# [18] = test system: LP-1; experiment: Cytotoxicity against human LP-1 cells after 72 hrs by alamar blue assay; type: functional, cell-based; details: LP-1, 72 h
# [19] = Selectivity ratio of IC50 for CDK9/cyclin T to IC50 for CDK7/cyclin H
# [20] = test system: OPM-2; experiment: Cytotoxicity against human OPM2 cells after 72 hrs by alamar blue assay; type: functional, cell-based; details: OPM-2, 72 h
# [21] = test system: NCI-H929; experiment: Induction of apoptosis in human NCI-H929 cells assessed as reduction of Mcl-1 protein level at 60 uM after 3 hrs by immunoblotting; type: functional, cell-based
# [22] = test system: NCI-H929; experiment: Induction of apoptosis in human NCI-H929 cells assessed as dephosphorylation of pRb at S249/T252 at 60 uM after 8 hrs by immunoblotting; type: functional, cell-based
# [23] = test system: NCI-H929; experiment: Induction of apoptosis in human NCI-H929 cells assessed as changes in XIAP protein level at 60 uM after 3 hrs by immunoblotting; type: functional, cell-based
# [24] = test system: NCI-H929; experiment: Induction of apoptosis in human NCI-H929 cells assessed as reduction of Mcl-1 protein level at 30 uM after 3 hrs by immunoblotting; type: functional, cell-based
# [25] = test system: LP-1; experiment: Induction of apoptosis in human LP-1 cells assessed as reduction of Mcl-1 protein level at 30 uM after 3 hrs by immunoblotting; type: functional, cell-based
# [26] = test system: LP-1; experiment: Induction of apoptosis in human LP-1 cells assessed as reduction of RNA polymerase 2 phosphoserine 2 level at 30 uM after 1.5 hrs by immunoblotting; type: functional, cell-based
# [27] = test system: NCI-H929; experiment: Induction of apoptosis in human NCI-H929 cells assessed as increase of p53 accumulation at 30 uM after 1.5 hrs by immunoblotting; type: functional, cell-based
# [28] = test system: NCI-H929; experiment: Induction of apoptosis in human NCI-H929 cells assessed as changes in survivin protein level at 30 uM after 3 hrs by immunoblotting; type: functional, cell-based
# [29] = test system: NCI-H929; experiment: Induction of apoptosis in human NCI-H929 cells assessed as effect on total pRb level at 30 uM after 1.5 hrs by immunoblotting; type: functional, cell-based
# [30] = test system: NCI-H929; experiment: Induction of apoptosis in human NCI-H929 cells assessed as reduction of RNA polymerase 2 phosphoserine 5 level at 30 uM after 1.5 hrs by immunoblotting; type: functional, cell-based
# [31] = Inhibition of CDK9/cyclin T
# [32] = test system: NCI-H929; experiment: Induction of apoptosis in human NCI-H929 cells assessed as dephosphorylation of pRb at S249/T252 at 30 uM after 1.5 hrs by immunoblotting; type: functional, cell-based
# [33] = test system: NCI-H929; experiment: Induction of apoptosis in human NCI-H929 cells assessed as reduction of total RNA polymerase 2 level at 30 uM after 1.5 hrs by immunoblotting; type: functional, cell-based
# [34] = test system: RPMI-8226; experiment: Induction of apoptosis in human RPM18226 cells at 30 uM after 24 hrs using TUNEL staining by flow cytometry; type: functional
# [35] = test system: NCI-H929; experiment: Cytotoxicity against human NCI-H929 cells assessed as reduction of cell viability at 20 to 30 uM treated for 16 hrs followed by washout measured after total 72 hrs growth period alamar blue assay relative to control; type: functional, cell-based
# [36] = test system: RPMI-8226; experiment: Induction of apoptosis in human RPM18226 cells at 30 uM after 3 hrs using TUNEL staining by flow cytometry; type: functional, cell-based
# [37] = test system: LP-1; experiment: Induction of apoptosis in human LP-1 cells at 30 uM after 24 hrs using TUNEL staining by flow cytometry; type: functional
# [38] = test system: LP-1; experiment: Cytotoxicity against human LP-1 cells assessed as reduction of cell viability at 20 to 30 uM treated for 24 hrs followed by washout measured after total 72 hrs growth period alamar blue assay relative to control; type: functional, cell-based
# [39] = test system: NCI-H929; experiment: Induction of apoptosis in human NCI-H929 cells assessed as […] slow migrating hyperphosphorylated RNA polymerase 2O form at 30 uM after 1.5 hrs by immunoblotting; type: functional, cell-based
# [40] = test system: NCI-H929; experiment: Induction of apoptosis in human NCI-H929 cells assessed as reduction of RNA polymerase 2 phosphoserine 2 level at 30 uM after 1.5 hrs by immunoblotting; type: functional, cell-based
# [41] = test system: NCI-H929; experiment: Induction of apoptosis in human NCI-H929 cells at 30 uM after 24 hrs using TUNEL staining by flow cytometry; type: functional
# [42] = test system: RPMI-8226; experiment: Induction of apoptosis in human RPM18226 cells assessed as reduction of RNA polymerase 2 phosphoserine 2 level at 30 uM after 1.5 hrs by immunoblotting; type: functional, cell-based
# [43] = test system: LP-1; experiment: Induction of apoptosis in human LP-1 cells at 30 uM after 3 hrs using TUNEL staining by flow cytometry; type: functional, cell-based
# [44] = test system: LP-1; experiment: Cytotoxicity against human LP-1 cells assessed as reduction of cell viability at 20 to 30 uM treated for 8 hrs followed by washout measured after total 72 hrs growth period alamar blue assay relative to control; type: functional
# [45] = test system: NCI-H929; experiment: Induction of apoptosis in human NCI-H929 cells assessed as changes in Bcl-2 protein level at 30 uM after 3 hrs by immunoblotting; type: functional, cell-based
# [46] = test system: NCI-H929; experiment: Induction of apoptosis in human NCI-H929 cells at 30 uM after 3 hrs using TUNEL staining by flow cytometry; type: functional, cell-based
# [47] = test system: RPMI-8226; experiment: Induction of apoptosis in human RPM18226 cells assessed as reduction of Mcl-1 protein level at 30 uM after 3 hrs by immunoblotting; type: functional, cell-based
# [48] = test system: NCI-H929; experiment: Induction of apoptosis in human NCI-H929 cells assessed as changes in XIAP protein level at 30 uM after 3 hrs by immunoblotting; type: functional, cell-based
# [49] = test system: NCI-H929; experiment: Induction of apoptosis in human NCI-H929 cells assessed as fast migrating hypophosphorylated RNA polymerase 2A form at 30 uM after 1.5 hrs by immunoblotting; type: functional, cell-based
# [50] = test system: NCI-H929; experiment: Induction of apoptosis in human NCI-H929 cells assessed as reduction of Hdm2 level at 30 uM after 1.5 hrs by immunoblotting; type: functional, cell-based
compound,measurement,setting,value
CC(C)C[C@@H](C=O)NC(=O)[C@H](CC(C)C)NC(=O)[C@H](CC(C)C)NC(=O)OCc1ccccc1 (Cbz-Leu-Leu-Leu-aldehyde),Activity,[1],inactive
same,Activity,[2],Active
OC[C@H]1O[C@@H](n2cnc3cc(Cl)c(Cl)cc32)[C@H](O)[C@@H]1O [DICHLORORIBOBENZIMIDAZOLE],Ratio IC50,[3],25
same,Activity,[4],Active
same,Activity,[5],Active
same,Activity,[6],Active
same,Activity,[7],Active
same,IC50,[8],41 µM
same,Activity,[9],inactive
same,Activity,[10],Active
same,Activity,[11],Active
same,Activity,[12],Active
same,Activity,[13],Active
same,Activity,[14],inactive
same,Activity,[15],Active
same,IC50,[16],20.1 µM
same,IC50,[17],46.8 µM
same,IC50,[18],29.8 µM
same,Ratio IC50,[19],25
same,IC50,[20],29.5 µM
same,Activity,[21],Active
same,Activity,[22],Active
same,Activity,[23],Active
CC[C@H](CO)Nc1nc(NCc2ccccc2)c2ncn(C(C)C)c2n1 [SELICICLIB],Activity,[24],Active
same,Activity,[25],Active
same,Activity,[26],Active
same,Activity,[27],Active
same,Activity,[28],Active
same,Activity,[29],inactive
same,Activity,[30],Active
same,IC50,[31],0.81 µM
same,Activity,[32],Active
same,IC50,[8],17.9 µM
same,Activity,[33],inactive
same,Activity,[34],>=60%
same,Activity,[35],Active
same,Activity,[36],Active
same,Activity,[37],>=60%
same,Activity,[38],Active
same,Activity,[39],Active
same,Activity,[40],Active
same,IC50,[17],19.5 µM
same,Activity,[41],>=60%
same,IC50,[18],12.7 µM
same,Activity,[42],Active
same,Activity,[43],Active
same,Activity,[44],50%
same,Activity,[45],Active
same,Activity,[46],Active
same,Activity,[47],Active
same,IC50,[20],18.5 µM
same,Activity,[48],Active
same,Activity,[49],inactive
same,Activity,[50],Active
